Assay results reported in publication PMC5943945, “Design, Synthesis and Cytotoxic Evaluation of Novel Chalcone Derivatives Bearing Triazolo[4,3-a]-quinoxaline Moieties as Potent Anticancer Agents with Dual EGFR Kinase and Tubulin Polymerization Inhibitory Effects” (Molecules : A Journal of Synthetic Chemistry and Natural …, 2017).
Values joined by “and” are separate entries in the source; they are usually repeats but may differ in a detail not shown here. Equal entries are not always repeated. Where two headings read alike, the source gives them in different places.

Key:
MCF-7 = assay: MTT cytotoxicity assay, MCF-7; type: cell-based; details: Homo sapiens, MCF7, 72 h exposure, mean ± SD
Description: (§1) The newly synthesized chalcone compounds 7a–k were evaluated for their in vitro anticancer activity against three cancer cell lines—HCT-116, MCF-7 and HepG-2—according to the MTT assay method using doxorubicin as reference drug.
(§2) The in vitro anticancer activities of the selected chalcone compounds against three cancer cell lines: human colon carcinoma (HCT-116), human hepatocellular carcinoma (HEPG-2), and human breast adenocarcinoma (MCF-7) were evaluated as described with some modifications. Target tumor cells were grown to log phase in DMEM medium supplemented with 10% fetal bovine serum. After diluting to 1 × 10^5 cells mL^−1 with the medium, 100 μL of the obtained cell suspension was added to each well of 96-well culture plates. Subsequently, incubation was performed at 37 °C in 5% CO2 atmosphere for 48 h before the cytotoxicity assessment. Tested samples at preset concentrations were added to 6 wells with doxorubicin being employed as a positive reference. After 72 h exposure period, 25 μL of PBS containing 2.5 mg mL^−1 of MTT was added to each well. After 4 h, the medium was replaced by 150 μL DMSO to dissolve the purple formazan crystals produced. The absorbance at 570 nm of each well was measured with an ELISA plate reader. The data represented the mean of three independent experiments in triplicate and were expressed as means ± SD.

HepG-2 = assay: MTT cytotoxicity assay, HepG-2; type: cell-based; details: Homo sapiens, HepG2, 72 h exposure, mean ± SD
Description: as §1, §2

HCT-116 = assay: MTT cytotoxicity assay, HCT-116; type: cell-based; details: Homo sapiens, 72 h exposure, mean ± SD
Description: as §1, §2

[1] = system: HCT-116, MCF-7 and HepG-2; assay: MTT cytotoxicity, statements across the three cell lines; type: cell-based, human; details: for anticancer activity in words: three cell lines, MTT; for IC50: Homo sapiens, range over HCT-116, MCF-7, HepG-2, read-out: IC50 against the three cell lines (range given)
Description: as §1, §2

EGFR TK = target: T1, EGFR TK (Homo sapiens, UniProt P00533); assay: EGFR inhibition assay (HTScan EGFR kinase assay kit); type: biochemical; details: averages of three independent experiments; compounds tested at concentration of 10 μM; 400 μM ATP
T1 construct: purchased Cell Signaling Technology
T1 sequence (P00533 25-1210): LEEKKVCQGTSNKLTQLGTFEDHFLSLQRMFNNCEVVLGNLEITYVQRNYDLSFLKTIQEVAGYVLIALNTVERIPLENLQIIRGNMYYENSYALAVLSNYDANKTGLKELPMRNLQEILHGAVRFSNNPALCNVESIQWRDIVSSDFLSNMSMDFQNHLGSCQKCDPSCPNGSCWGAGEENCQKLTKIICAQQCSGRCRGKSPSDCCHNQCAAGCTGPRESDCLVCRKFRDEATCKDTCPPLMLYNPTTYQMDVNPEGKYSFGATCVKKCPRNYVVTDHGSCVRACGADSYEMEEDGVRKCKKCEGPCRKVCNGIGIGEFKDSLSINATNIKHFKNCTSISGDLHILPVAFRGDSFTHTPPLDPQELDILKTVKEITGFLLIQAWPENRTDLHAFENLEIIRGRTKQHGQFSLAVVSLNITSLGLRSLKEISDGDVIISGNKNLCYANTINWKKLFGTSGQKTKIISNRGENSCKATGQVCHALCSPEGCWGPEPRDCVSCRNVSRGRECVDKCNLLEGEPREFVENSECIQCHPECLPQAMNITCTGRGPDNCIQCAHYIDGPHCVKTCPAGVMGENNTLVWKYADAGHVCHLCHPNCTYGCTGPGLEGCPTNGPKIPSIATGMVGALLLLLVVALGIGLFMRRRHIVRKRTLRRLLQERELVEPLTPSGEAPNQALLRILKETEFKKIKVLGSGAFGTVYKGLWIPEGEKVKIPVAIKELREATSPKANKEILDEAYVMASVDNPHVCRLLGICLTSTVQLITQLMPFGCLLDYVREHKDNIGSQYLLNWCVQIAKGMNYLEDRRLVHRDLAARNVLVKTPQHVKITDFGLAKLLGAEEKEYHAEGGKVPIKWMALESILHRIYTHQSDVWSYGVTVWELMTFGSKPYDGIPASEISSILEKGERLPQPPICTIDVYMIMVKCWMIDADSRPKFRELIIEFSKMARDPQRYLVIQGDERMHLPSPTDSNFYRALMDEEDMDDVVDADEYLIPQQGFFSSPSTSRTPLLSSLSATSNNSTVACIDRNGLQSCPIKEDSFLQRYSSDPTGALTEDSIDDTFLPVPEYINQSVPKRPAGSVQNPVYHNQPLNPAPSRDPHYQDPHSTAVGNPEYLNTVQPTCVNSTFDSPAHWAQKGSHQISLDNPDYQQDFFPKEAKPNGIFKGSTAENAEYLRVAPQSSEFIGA
Description: As the designed compounds had good antiproliferative activity, in vitro EGFR inhibition capability was firstly evaluated for the target cytotoxic derivatives to see whether their cytotoxicity was mediated by kinase inhibition. […]. EGFR kinase activity was assessed using HTScan EGFR kinase assay kits (Cell Signaling Technology, Danvers, MA, USA). The experiments were performed according to the manufacturer’s instructions. […] Phosphorylated substrate was captured with strapavidin-coated 96-well plates. The level of phosphorylation was monitored by anti-phosphotyrosine and europium-labeled secondary antibodies (DELFIA, Perkin-Elmer, Akron, OH, USA). The enhancement solution was added at the end of the assay and enzyme activity was measured in a Victor II 1420 microplate reader (Wallac, Boston, MA, USA) at […].

tubulin = target: T2, tubulin (Homo sapiens, UniProt P07437+P68363); assay: Tubulin polymerization / ELISA for Tubulin Beta (TUBb) in HCT-116 cells; type: cell-based
T2 construct: The HCT-116 cell line was obtained from the American Type Culture Collection; endogenous in cells; host or cells: HCT-116
T2 sequence (P07437 whole entry): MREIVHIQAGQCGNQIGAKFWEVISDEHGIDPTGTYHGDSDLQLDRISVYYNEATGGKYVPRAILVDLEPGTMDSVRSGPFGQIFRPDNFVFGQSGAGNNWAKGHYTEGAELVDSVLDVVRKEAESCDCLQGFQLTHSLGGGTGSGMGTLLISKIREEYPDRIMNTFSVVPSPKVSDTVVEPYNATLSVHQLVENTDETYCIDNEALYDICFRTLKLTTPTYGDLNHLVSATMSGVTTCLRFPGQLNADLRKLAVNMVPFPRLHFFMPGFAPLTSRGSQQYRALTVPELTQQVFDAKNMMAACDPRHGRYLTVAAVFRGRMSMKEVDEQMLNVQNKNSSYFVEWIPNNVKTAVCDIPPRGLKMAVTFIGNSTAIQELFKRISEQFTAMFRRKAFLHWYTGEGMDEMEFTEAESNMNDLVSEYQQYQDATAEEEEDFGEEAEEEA
T2 sequence (P68363 whole entry): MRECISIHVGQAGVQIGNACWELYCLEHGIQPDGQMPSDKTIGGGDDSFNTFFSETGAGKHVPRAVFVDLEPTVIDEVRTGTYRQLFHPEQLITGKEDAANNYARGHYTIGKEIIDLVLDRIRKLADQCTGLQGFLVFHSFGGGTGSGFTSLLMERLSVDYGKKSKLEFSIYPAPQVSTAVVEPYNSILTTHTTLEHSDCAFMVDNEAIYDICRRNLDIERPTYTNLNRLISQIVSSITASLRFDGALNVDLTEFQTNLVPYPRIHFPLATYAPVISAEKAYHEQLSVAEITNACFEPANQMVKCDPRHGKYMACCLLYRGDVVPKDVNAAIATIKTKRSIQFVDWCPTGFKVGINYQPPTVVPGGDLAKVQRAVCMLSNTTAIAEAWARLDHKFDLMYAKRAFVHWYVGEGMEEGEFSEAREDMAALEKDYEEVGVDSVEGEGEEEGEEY
Description: Tubulin is the principal component of the eukaryotic cytoskeleton and participates in several crucial cellular processes, including cell replication.
Plate cells (cells density 1.2–1.8 × 10^3 cells/well) in a volume of […] complete growth medium and […] of the tested compound per well in a 96-well plate for 18–24 h before the enzyme assay for tubulin. […] Standards or samples are then added to the appropriate microtiter plate wells with a biotin-conjugated antibody specific to TUBb. Next, avidin conjugated to horseradish peroxidase (HRP) is added to each microplate well and incubated. […] The enzyme-substrate reaction is terminated by the addition of sulphuric acid solution and the color change is measured spectrophotometrically at a wavelength of 450 ± 10 nm. The concentration of TUBb in the samples is then determined by comparing the O.D. of the samples to the standard curve.

[2] = averages of two independent experiments, read-out: Tubulin Polymerization (IC50 µM)

`CCc1nnc2c(Cl)nc3ccccc3n12` [Compound 5, 4-Chloro-1-ethyl-[1,2,4]triazolo[4,3-a]quinoxaline] showed an IC50 (MCF-7) of 246 ± 0.13 µM, a melting point of 158 to 160 °C and an IC50 (HepG-2) of 322 ± 0.15 µM. It also gave an IC50 (HCT-116) of 236 ± 0.1 µM.
In the case of `CCc1nnc2c(Nc3ccc(C(C)=O)cc3)nc3ccccc3n12` [Compound 6, 1-(4-((1-ethyl-[1,2,4]triazolo[4,3-a]quinoxalin-4-yl)amino)phenyl)ethan-1-one], the IC50 (MCF-7) is reported as 410 ± 0.25 µM, the melting point is reported as 235 to 237 °C and the IC50 (HepG-2) is reported as 446 ± 0.2 µM. It also gave an IC50 (HCT-116) of 411 ± 0.21 µM.
In the case of `CCc1nnc2c(Nc3ccc(C(=O)/C=C/c4ccccc4)cc3)nc3ccccc3n12` [Compound 7a, (E)-1-(4-((1-Ethyl-[1,2,4]triazolo[4,3-a]quinoxalin-4-yl)amino)phenyl)-3-phenylprop-2-en-1-one], the “anticancer activity in words” value [1] is reported as “did not show significant activity”, the IC50 (MCF-7) is reported as 58.92 ± 0.32 µM and the melting point is reported as 260 to 262 °C. It also gave an IC50 (HepG-2) of 105.2 ± 0.5 µM, an IC50 (EGFR TK) of 0.661 ± 0.00011 µM and an IC50 (HCT-116) of 57.49 ± 0.29 µM. The IC50 (tubulin; [2]) was 77.1 ± 0.21 µM.
In the case of `CCc1nnc2c(Nc3ccc(C(=O)/C=C/c4ccccc4OC)cc3)nc3ccccc3n12` [Compound 7b, (E)-1-(4-((1-Ethyl-[1,2,4]triazolo[4,3-a]quinoxalin-4-yl)amino)phenyl)-3-(2-methoxyphenyl)prop-2-en-1-one], the IC50 [1] is reported as 1.65 to 34.3 µM, the IC50 (MCF-7) is reported as 24.04 ± 0.12 µM and the melting point is reported as 264 to 266 °C. For the same compound, the IC50 (HepG-2) was 30.72 ± 0.12 µM, the IC50 (EGFR TK) was 0.127 to 0.136 µM and 0.127 µM and the IC50 (HCT-116) was 25.6 ± 0.03 µM. The IC50 (tubulin; [2]) was 18.1 ± 0.3 µM.
For `CCc1nnc2c(Nc3ccc(C(=O)/C=C/c4ccccc4O)cc3)nc3ccccc3n12` [Compound 7c, (E)-1-(4-((1-Ethyl-[1,2,4]triazolo[4,3-a]quinoxalin-4-yl)amino)phenyl)-3-(2-hydroxyphenyl)prop-2-en-1-one], the IC50 (MCF-7) was 22.17 ± 0.11 µM, the melting point was 261 to 263 °C and the IC50 (HepG-2) was 17.32 ± 0.12 µM. For the same compound, the IC50 (EGFR TK) was 0.127 to 0.136 µM and 0.136 µM, the IC50 (HCT-116) was 19.8 ± 0.23 µM and the IC50 (tubulin; [2]) was 43.4 ± 0.01 µM.
With `CCc1nnc2c(Nc3ccc(C(=O)/C=C/c4ccc(C)cc4)cc3)nc3ccccc3n12` [Compound 7d, (E)-1-(4-((1-Ethyl-[1,2,4]triazolo[4,3-a]quinoxalin-4-yl)amino)phenyl)-3-(p-tolyl)prop-2-en-1-one] the “anticancer activity in words” value [1] was “low activity”, the IC50 (MCF-7) was 93.4 ± 0.14 µM and the melting point was 247 to 249 °C. For the same compound, the IC50 (HepG-2) was over 100 µM, the IC50 (EGFR TK) was over 100 µM and the IC50 (HCT-116) was over 100 µM.
With `CCc1nnc2c(Nc3ccc(C(=O)/C=C/c4ccc(OC)cc4)cc3)nc3ccccc3n12` [Compound 7e, (E)-1-(4-((1-Ethyl-[1,2,4]triazolo[4,3-a]quinoxalin-4-yl)amino)phenyl)-3-(4-methoxyphenyl)prop-2-en-1-one] the IC50 [1] was 1.65 to 34.3 µM, the IC50 (MCF-7) was 8.23 ± 0.25 µM and the IC50 (HepG-2) was 34.28 ± 0.14 µM. The IC50 (EGFR TK) was 0.083 ± 0.04 µM, the IC50 (HCT-116) was 9.57 ± 0.11 µM and the IC50 (tubulin; [2]) was 14.7 ± 0.11 µM.
Work on `CCc1nnc2c(Nc3ccc(C(=O)/C=C/c4ccc(O)cc4)cc3)nc3ccccc3n12` [Compound 7f, (E)-1-(4-((1-Ethyl-[1,2,4]triazolo[4,3-a]quinoxalin-4-yl)amino)phenyl)-3-(4-hydroxyphenyl)prop-2-en-1-one] yielded an IC50 (MCF-7) of over 100 µM, a melting point of 253 to 255 °C and an IC50 (HepG-2) of over 100 µM. The IC50 (EGFR TK) was over 50 µM, the IC50 (HCT-116) was 18.1 ± 0.15 µM and the IC50 (tubulin; [2]) was over 100 µM.
Work on `CCc1nnc2c(Nc3ccc(C(=O)/C=C/c4cc(OC)c(OC)c(OC)c4)cc3)nc3ccccc3n12` [Compound 7g, (E)-1-(4-((1-Ethyl-[1,2,4]triazolo[4,3-a]quinoxalin-4-yl)amino)phenyl)-3-(3,4,5-trimethoxyphenyl)prop-2-en-1-one] yielded an IC50 [1] of 1.65 to 34.3 µM, an IC50 (MCF-7) of 1.65 ± 0.13 µM and an IC50 (HepG-2) of 8.58 ± 0.06 µM. It also gave an IC50 (EGFR TK) of 0.039 µM, an IC50 (HCT-116) of 3.61 ± 0.18 µM and an IC50 (tubulin; abstract text, read-out: antitubulin polymerization activity (abstract)) of 8.4 µM. The IC50 (tubulin; [2]) was 8.84 ± 0.02 µM.
With `CCc1nnc2c(Nc3ccc(C(=O)/C=C/c4ccc([N+](=O)[O-])cc4)cc3)nc3ccccc3n12` [Compound 7h, (E)-1-(4-((1-Ethyl-[1,2,4]triazolo[4,3-a]quinoxalin-4-yl)amino)phenyl)-3-(4-nitrophenyl)prop-2-en-1-one] the IC50 (MCF-7) was over 100 µM, the melting point was 260 to 262 °C and the IC50 (HepG-2) was over 100 µM. The IC50 (EGFR TK) was over 100 µM, the IC50 (HCT-116) was over 100 µM and the IC50 (tubulin; [2]) was over 100 µM.
Compound `CCc1nnc2c(Nc3ccc(C(=O)/C=C/c4ccc(Cl)cc4)cc3)nc3ccccc3n12` [Compound 7i, (E)-3-(4-Chlorophenyl)-1-(4-((1-ethyl-[1,2,4]triazolo[4,3-a]quinoxalin-4-yl)amino)phenyl)prop-2-en-1-one] has an IC50 (MCF-7) of over 100 µM, a melting point of 255 to 257 °C and an IC50 (HepG-2) of over 100 µM. It also gave an IC50 (EGFR TK) of over 100 µM, an IC50 (HCT-116) of over 100 µM and an IC50 (tubulin; [2]) of over 100 µM.
Work on `CCc1nnc2c(Nc3ccc(C(=O)/C=C/c4ccc(Cl)cc4Cl)cc3)nc3ccccc3n12` [Compound 7j, (E)-3-(2,4-Dichlorophenyl)-1-(4-((1-ethyl-[1,2,4]triazolo[4,3-a]quinoxalin-4-yl)amino)phenyl)prop-2-en-1-one] yielded an IC50 (MCF-7) of over 100 µM, a melting point of 250 to 252 °C and an IC50 (HepG-2) of over 100 µM. It also gave an IC50 (EGFR TK) of over 100 µM, an IC50 (HCT-116) of over 100 µM and an IC50 (tubulin; [2]) of over 100 µM.
`CCc1nnc2c(Nc3ccc(C(=O)/C=C/c4c(Cl)cccc4Cl)cc3)nc3ccccc3n12` [Compound 7k, (E)-3-(2,6-Dichlorophenyl)-1-(4-((1-ethyl-[1,2,4]triazolo[4,3-a]quinoxalin-4-yl)amino)phenyl)prop-2-en-1-one] showed an IC50 (MCF-7) of over 100 µM, a melting point of 250 to 252 °C and an IC50 (HepG-2) of over 100 µM. For the same compound, the IC50 (EGFR TK) was over 100 µM, the IC50 (HCT-116) was 19.7 ± 0.25 µM and the IC50 (tubulin; [2]) was over 100 µM.
`COc1cccc2c1C(=O)c1c(O)c3c(c(O)c1C2=O)C[C@@](O)(C(=O)CO)C[C@@H]3O[C@H]1C[C@H](N)[C@H](O)[C@H](C)O1` [Doxorubicin, reference compound] gave an IC50 (MCF-7) of 0.27 ± 0.08 µM, an IC50 (HepG-2) of 0.22 ± 0.01 µM and an IC50 (HCT-116) of 1.55 ± 0.03 µM.
